From the supplement of paper PMC11061612

Tests used:
Test in all cases: combination Emax (second highest fraction inhibited in the dose matrix, 72 h); higher = more inhibition; extreme values may be limits of the assay
[1] = test system: NCI-H1563 (Lung Adenocarcinoma)
In short: (§1)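 Cell lines grown in DMEM/F12 or RPMI with 10% FBS were plated in 1536-well plates and held 24 hours at 37°C, 5% CO2 before 72 hours of exposure to two-drug dose matrices, with DMSO typically at 0.2%. CellTiter-Glo 2.0 luminescence gave viability, which was converted to inhibition. Vehicle wells were set to 0 and blank wells to 1. Combination Emax is the second-highest inhibition in the matrix, and Bliss excess is the observed combination effect minus the expected EA + EB − EA·EB, where EA and EB are the single-agent effects.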

[2] = test system: KYSE-70 (Esophageal Squamous Cell Carcinoma)
In short: as §1

[3] = test system: EB-3 (Burkitt's Lymphoma)
In short: as §1

[4] = test system: RPMI-8866 (Chronic Myelogenous Leukemia)
In short: as §1

[5] = test system: COLO-684 (Endometrial Carcinoma)
In short: as §1

[6] = test system: NCI-H1623 (Lung Adenocarcinoma)
In short: as §1

[7] = test system: Caov-3 (Ovarian Carcinoma)
In short: as §1

[8] = test system: SW684 (Other Solid Carcinomas)
In short: as §1

[9] = test system: HuO-3N1 (Osteosarcoma)
In short: as §1

[10] = test system: SJRH30 (Rhabdomyosarcoma)
In short: as §1

[11] = test system: AsPC-1 (Pancreatic Carcinoma)
In short: as §1

[12] = test system: SNU-175 (Colorectal Carcinoma)
In short: as §1

[13] = test system: RERF-LC-KJ (Lung Adenocarcinoma)
In short: as §1

[14] = test system: NCI-H810 (Non-Small Cell Lung Carcinoma)
In short: as §1

[15] = test system: ES-2 (Ovarian Carcinoma)
In short: as §1

[16] = test system: SK-MM-2 (Plasma Cell Myeloma)
In short: as §1

[17] = test system: PANC-02-03 (Pancreatic Carcinoma)
In short: as §1

[18] = test system: KYM-1 (Rhabdomyosarcoma)
In short: as §1

[19] = test system: OVTOKO (Ovarian Carcinoma)
In short: as §1

[20] = test system: HSC-3 (Oral Cavity Carcinoma)
In short: as §1

Row | Compound | combination Emax [1] | combination Emax [2] | combination Emax [3] | combination Emax [4] | combination Emax [5] | combination Emax [6] | combination Emax [7] | combination Emax [8] | combination Emax [9] | combination Emax [10] | combination Emax [11] | combination Emax [12] | combination Emax [13] | combination Emax [14] | combination Emax [15] | combination Emax [16] | combination Emax [17] | combination Emax [18] | combination Emax [19] | combination Emax [20]
1 | CN(C)CCCOc1ccc(-c2ccc3ncc4c(c3c2)n(C2CCOCC2)c(=O)n4C)cn1 [AZD0156] + C=CCn1c(=O)c2cnc(Nc3ccc(N4CCN(C)CC4)cc3)nc2n1-c1cccc(C(C)(C)O)n1 [AZD1775] (first compound max 1 µM, partner max 1 µM) | 0.367 | 0.538 | 0.736 | 0.965 | 0.688 | 0.311 | 0.65 | 0.107 | 0.183 | 0.809 | 0.317 | 0.405 | 0.33 | 0.889 | 0.616 | 0.705 | 0.672 | 0.355 | 0.542 | 0.243
2 | CN(C)CCCOc1ccc(-c2ccc3ncc4c(c3c2)n(C2CCOCC2)c(=O)n4C)cn1 [AZD0156] + CCN(CCO)CCCOc1ccc2c(Nc3cc(CC(=O)Nc4cccc(F)c4)[nH]n3)ncnc2c1 [AZD2811] (first compound max 1 µM, 7x7, partner max 1 µM) | 0.311 | 0.161 | 0.425 | 0.61 | 0.201 | 0.0312 | 0.809 | 0.154 | 0.15 | 0.125 | 0.0981 | 0.604 | 0.359 | 0.542 | 0.167 | 0.248 | 0.163 | 0.0599 | 0.113 | 0.308
3 | CN(C)CCCOc1ccc(-c2ccc3ncc4c(c3c2)n(C2CCOCC2)c(=O)n4C)cn1 [AZD0156] + C[C@@H]1COCCN1C2=NC(=NC(=C2)C3(CC3)[S@](=N)(=O)C)C4=C5C=CNC5=NC=C4 [AZD6738] (first compound max 1 µM, 7x7, partner max 10 µM) | 0.385 | 0.397 | 0.763 | 0.967 | 0.812 | 0.675 | 0.663 | 0.301 | 0.299 | 0.894 | 0.454 | 0.49 | 0.225 | 0.762 | 0.808 | 0.625 | 0.579 | 0.786 | 0.471 | 0.487
4 | C=CCn1c(=O)c2cnc(Nc3ccc(N4CCN(C)CC4)cc3)nc2n1-c1cccc(C(C)(C)O)n1 [AZD1775] + C[C@@H]1COCCN1C2=NC(=NC(=C2)C3(CC3)[S@](=N)(=O)C)C4=C5C=CNC5=NC=C4 [AZD6738] (first compound max 1 µM, partner max 10 µM) | 0.446 | 0.656 | 0.855 | 0.989 | 0.851 | 0.74 | 0.762 | 0.474 | 0.5 | 0.962 | 0.475 | 0.702 | 0.413 | 0.975 | 0.841 | 0.705 | 0.728 | 0.837 | 0.56 | 0.63
5 | C=CCn1c(=O)c2cnc(Nc3ccc(N4CCN(C)CC4)cc3)nc2n1-c1cccc(C(C)(C)O)n1 [AZD1775] + O=C(c1cc(Cc2n[nH]c(=O)c3ccccc23)ccc1F)N1CCN(C(=O)C2CC2)CC1 [Olaparib] (first compound max 1 µM, partner max 10 µM) | 0.215 | 0.655 | 0.73 | 0.977 | 0.625 | 0.605 | 0.716 | 0.249 | 0.2 | 0.777 | 0.29 | 0.447 | 0.276 | 0.926 | 0.622 | 0.705 | 0.667 | 0.563 | 0.496 | 0.268
6 | CCN(CCO)CCCOc1ccc2c(Nc3cc(CC(=O)Nc4cccc(F)c4)[nH]n3)ncnc2c1 [AZD2811] + C=CCn1c(=O)c2cnc(Nc3ccc(N4CCN(C)CC4)cc3)nc2n1-c1cccc(C(C)(C)O)n1 [AZD1775] (first compound max 1 µM, partner max 1 µM) | 0.245 | 0.549 | 0.62 | 1 | 0.649 | 0.297 | 0.846 | 0.165 | 0.233 | 0.827 | 0.293 | 0.637 | 0.312 | 0.886 | 0.627 | 0.644 | 0.538 | 0.401 | 0.419 | 0.492
7 | CCN(CCO)CCCOc1ccc2c(Nc3cc(CC(=O)Nc4cccc(F)c4)[nH]n3)ncnc2c1 [AZD2811] + C[C@@H]1COCCN1C2=NC(=NC(=C2)C3(CC3)[S@](=N)(=O)C)C4=C5C=CNC5=NC=C4 [AZD6738] (first compound max 1 µM, 7x7, partner max 10 µM) | 0.206 | 0.313 | 0.644 | 0.955 | 0.748 | 0.6 | 0.841 | 0.385 | 0.339 | 0.839 | 0.42 | 0.578 | 0.319 | 0.738 | 0.728 | 0.533 | 0.62 | 0.762 | 0.37 | 0.454
8 | CN(CCO)CC[C@H](CSc1ccccc1)Nc1ccc(S(=O)(=O)NC(=O)c2ccc(N3CCC([C@@H](O)c4ccccc4-c4ccc(Cl)cc4)CC3)cc2)cc1S(=O)(=O)C(F)(F)F [AZD4320] + C[C@@H](Nc1cc(F)cc(F)c1)c1cc(C(=O)N(C)C)cc2c(=O)cc(N3CCOCC3)oc12 [AZD8186] (first compound max 1 µM, 7x7, partner max 3 µM) | 0.565 | 0.211 | 0.332 | 0.864 | 0.396 | 0.865 | 0.911 | 0.702 | 0.441 | 0.457 | 0.739 | 0.908 | 0.431 | 0.592 | 0.334 | 1 | 0.278 | 0.197 | – | 0.711
9 | Cc1c2c(nn1C)CSCc1cc(n(C)n1)CSc1cc(c3ccccc3c1)OCCCc1c(C(=O)O)n(C)c3c-2c(Cl)ccc13 [AZD5991] + Cn1cnc2c(F)c(Nc3ccc(Br)cc3Cl)c(C(=O)NOCCO)cc21 [Selumetinib] (first compound max 1 µM, 7x7, partner max 3 µM) | 0.551 | 0.188 | 0.138 | 0.502 | 0.261 | 0.898 | 0.501 | 0.319 | 0.832 | 0.512 | 0.506 | 0.714 | 0.516 | 0.322 | 0.56 | 0.356 | 0.524 | 0.259 | – | 0.744
10 | CCc1c2c(nc3ccc(O)cc13)-c1cc3c(c(=O)n1C2)COC(=O)[C@]3(O)CC [SN-38] + O=C(c1cc(Cc2n[nH]c(=O)c3ccccc23)ccc1F)N1CCN(C(=O)C2CC2)CC1 [Olaparib] (first compound max 0.3 µM, 7x7, partner max 10 µM) | – | 0.304 | 0.682 | 0.994 | 0.514 | – | 0.984 | 0.556 | 0.688 | 0.444 | 0.156 | 0.471 | – | 0.557 | – | 0.89 | 0.728 | 0.875 | – | 0.847
11 | Cn1cnc2c(F)c(Nc3ccc(Br)cc3Cl)c(C(=O)NOCCO)cc21 [Selumetinib] + CC(C)n1c(=O)n(C)c2cnc3cc(F)c(-c4ccc(OCCCN5CCCCC5)nc4)cc3c21 [AZD1390] (first compound max 10 µM, 7x7, partner max 0.3 µM) | 0.161 | 0.168 | 0.215 | 0.193 | 0.125 | 0.276 | – | 0.152 | 0.129 | 0.0759 | 0.357 | 0.27 | 0.2 | 0.304 | 0.377 | 0.174 | 0.414 | 0.141 | 0.185 | 0.346
12 | Cn1cnc2c(F)c(Nc3ccc(Br)cc3Cl)c(C(=O)NOCCO)cc21 [Selumetinib] + CCN(CCO)CCCOc1ccc2c(Nc3cc(CC(=O)Nc4cccc(F)c4)[nH]n3)ncnc2c1 [AZD2811] (first compound max 10 µM, 7x7, partner max 1 µM) | 0.232 | 0.21 | 0.219 | 0.34 | 0.14 | 0.331 | – | 0.277 | 0.181 | 0.253 | 0.443 | 0.956 | 0.289 | 0.444 | 0.488 | 0.161 | 0.475 | 0.318 | 0.227 | 0.512
13 | Cn1cnc2c(F)c(Nc3ccc(Br)cc3Cl)c(C(=O)NOCCO)cc21 [Selumetinib] + C[C@@H]1COCCN1C2=NC(=NC(=C2)C3(CC3)[S@](=N)(=O)C)C4=C5C=CNC5=NC=C4 [AZD6738] (first compound max 10 µM, 7x7, partner max 10 µM) | 0.313 | 0.243 | 0.589 | 0.943 | 0.698 | 0.771 | – | 0.265 | 0.22 | 0.821 | 0.435 | 0.718 | 0.312 | 0.414 | 0.714 | 0.23 | 0.566 | 0.899 | 0.404 | 0.545
